Measurements published in US4199504A (priority 1978, dated 1980).

Columns and labels:
C3 H mammary tumor = assay: C3H mammary tumor transplanted in mice, tumor inhibition or prolongation of survival; format: in vivo
Procedure: (§1) The compounds of this invention and those preparable by the process disclosed herein are active against transplanted tumors in mice in vivo.
(§2) The following table--Table 1--gives the results of experiments in which mice bearing transplanted Gardner lymphosarcoma (GLS), C3 H mammary tumor, B16 melanoma, P 1534(J) leukemia, P388 leukemia or 755 adenocarcinoma were treated with a compound of this invention. In the table, column 1 gives the name of the compound; column 2, the tumor system employed; column 3, the dosage schedule and column 4, the percent inhibition of tumor growth or increased life span.

P 1534(J) leukemia = P 1534(J) leukemia transplanted in mice, tumor inhibition or prolongation of survival; format: in vivo; conditions: P1534(J)
Procedure: as §1, §2

755 adenocarcinoma = 755 adenocarcinoma transplanted in mice, tumor inhibition or prolongation of survival; format: in vivo
Procedure: as §1, §2

P388 leukemia = P388 leukemia transplanted in mice, tumor inhibition or prolongation of survival; format: in vivo
Procedure: as §1, §2

[1] = system: Gardner lymphosarcoma (GLS); assay: Gardner lymphosarcoma (GLS) transplanted in mice, tumor inhibition or prolongation of survival; format: in vivo
Procedure: as §1, §2

B16 melanoma = B16 melanoma transplanted in mice, tumor inhibition or prolongation of survival; format: in vivo
Procedure: as §1, §2

leukemias = conditions: clinical trial in humans; cited from earlier work

CCC1(O)CC2CN(CCc3c([nH]c4ccccc34)C(C(=O)OC)(c3cc4c(cc3OC)N(C)C3C(O)(C(=O)NCCSSCCNC(=O)C5(O)C(O)C6(CC)C=CCN7CCC8(c9cc(C%10(C(=O)OC)CC%11CN(CCc%12c%10[nH]c%10ccccc%12%10)CC(O)(CC)C%11)c(OC)cc9N(C)C58)C76)C(O)C5(CC)C=CCN6CCC43C65)C2)C1 (stereo not drawn) [bis[β-(4-Desacetyl VLB C-3 carboxamido)ethyl]disulfide disulfate]
Percent Inhibition or Prolongation of Survival Time (C3 H mammary tumor; 0.9 mg./kg. × 3): 31-36%
Toxic (Percent Inhibition or Prolongation of Survival Time) (C3 H mammary tumor; 1.2 mg./kg. × 3): Toxic
Percent Inhibition or Prolongation of Survival Time (P 1534(J) leukemia; 0.6 mg./kg. × 3): 20-39%
Percent Inhibition or Prolongation of Survival Time (P 1534(J) leukemia; 0.9 mg./kg. × 3): 50-53%
Percent Inhibition or Prolongation of Survival Time (P 1534(J) leukemia; 1.2 mg./kg. × 3): 62%
Toxic (Percent Inhibition or Prolongation of Survival Time) (P 1534(J) leukemia; 1.2 mg./kg. × 3): Toxic
Percent Inhibition or Prolongation of Survival Time (P 1534(J) leukemia; 1.6 mg./kg. × 3): 90-99%
Percent Inhibition or Prolongation of Survival Time (755 adenocarcinoma; 755, 0.6 mg./kg. × 3): 29-34%
Percent Inhibition or Prolongation of Survival Time (755 adenocarcinoma; 755, 0.9 mg./kg. × 3): 34-54%
Percent Inhibition or Prolongation of Survival Time (755 adenocarcinoma; 755, 1.6 mg./kg. × 3): 60%
Percent Inhibition or Prolongation of Survival Time (P388 leukemia; P388, 0.6 mg./kg. × 3): 33-44%
Percent Inhibition or Prolongation of Survival Time (P388 leukemia; P388, 0.9 mg./kg. × 3): 39-47%
Percent Inhibition or Prolongation of Survival Time (P388 leukemia; P388, 1.2 mg./kg. × 3): 53-61%
Percent Inhibition or Prolongation of Survival Time ([1]; 0.4 mg./kg. × 9): 43-100%
Percent Inhibition or Prolongation of Survival Time ([1]; 0.9 mg./kg. × 3): 34-46%
Percent Inhibition or Prolongation of Survival Time ([1]; 1.2 mg./kg. × 3): 62-93%
Percent Inhibition or Prolongation of Survival Time (B16 melanoma; B16, 0.6 mg./kg. × 3): 118%
number of indefinite survivors (B16 melanoma; B16, 0.6 mg./kg. × 3): 7
Percent Inhibition or Prolongation of Survival Time (B16 melanoma; B16, 0.9 mg./kg. × 3): 86%
number of indefinite survivors (B16 melanoma; B16, 0.9 mg./kg. × 3): 7
Percent Inhibition or Prolongation of Survival Time (B16 melanoma; B16, 1.2 mg./kg. × 3): 24%
number of indefinite survivors (B16 melanoma; B16, 1.2 mg./kg. × 3): 3

CC[C@]1(O)C[C@@H]2CN(CCc3c([nH]c4ccccc34)[C@@](C(=O)OC)(c3cc4c(cc3OC)N(C)[C@H]3[C@@](O)(C(N)=O)[C@H](O)[C@]5(CC)C=CCN6CC[C@]43[C@@H]65)C2)C1 [vindesine, 4-desacetyl VLB C-3 carboxamide]
effectiveness against leukemias (leukemias): effective against leukemias including vincristine-resistant leukemias
neurotoxicity compared with vincristine (leukemias): less neurotoxicity than does vincristine
